Experimental data reported in patent US7608289B2, “Food supplemented with a carnitine, suitable for stimulating the biosynthesis of polyunsaturated fatty acids from the saturated fatty acids contained in the food” (Sigma-Tau Industrie Farmaceutiche Riunite S.p.A., priority 1999, dated 2009).

Legend:
[1] = Plasma lipid test: polyunsaturated to saturated fatty acid ratio in rabbits on milk diet plus carnitines; format: in vivo, New Zealand male rabbits; details: plasma lipids, carnitines given with milk diet, compared to controls
Source text: (§1) For these tests a batch of New Zealand male rabbits with a mean body weight of 3.7 kg was used, which, after a period of acclimatisation on a standard diet for eight days, were divided into different groups. One group received standard diet alone, while a second group received unskimmed milk mixed with pellets of the normal diet whose final composition was as follows: 4% fats, 24% proteins, 58% carbohydrates, 0.7% fibre, 10% water, 3% minerals and 1% vitamins. […]
(§2) After four weeks of treatment, blood samples were taken from the marginal vein of the ear and the plasma lipids obtained were subjected to measurement of the percentages of both saturated fatty acids and polyunsaturated fatty acids. The percentage amounts of unsaturated omega-3 fatty acids present in liver samples taken from the same animals were also measured. While total lipids were measured according to the method described by Schanfeld (Schanfeld G., J. Clin. Invest., 226:497, 1957) and Folch (Folch J., J. Biol. Chem., 226:497, 1957), the triglycerides and phospholipids were measured according to the method described by Terstra (Terstra A. H. M., Anal. Biochem., 11:149, 1981) and the n-3 and n-6 fatty acids according to the method described by Nestel (Nestel P. J., Ann. Rev. Nutr., 10:149, 1990) and Cevec (Cevec G., Biochemistry, 30:7:7186, 1991).

[2] = n-3 and n-6 fatty acids in hepatic phospholipids of rabbits on the diets; format: in vivo, New Zealand male rabbits; details: liver specimens, carnitines added to the milk diet
Source text: as §1, §2

SMILES | change of the ratio of polyunsaturated to saturated fatty acids (in words) [1] | increase in n-3 fatty acids / improvement of n-3 to n-6 ratio in liver (in words) [2]
CC(=O)O[C@H](CC(=O)[O-])C[N+](C)(C)C [acetyl L-carnitine] | particularly evident | –
CCC(=O)O[C@H](CC(=O)[O-])C[N+](C)(C)C [propionyl L-carnitine] | particularly evident | most active compound
